Counter-ions that a name gives are not always drawn.

A short description of the data set: in vitro release of naltrexone from drug delivery devices (Example 1). Type of data set: physicochemical. To be noted: porous membrane about 5-20 mm^2 diffusible area, approximately 70% porosity; phosphate buffer, 37° C. The source says: Naltrexone base was compounded with anisic acid at acid:drug ratios of 0:[…] (molar basis), tableted with polyvinylpyrrolidone as a binder and stearic acid as a lubricant (12% and 2% of the final formulation mass, respectively), and loaded into delivery devices equipped with 0.1 micron polyvinylidene fluoride (DURAPORE®) membranes. In a subset of devices, approximately 75% of the available membrane surface area was blocked to measure the influence of surface area upon output rate. All devices were vacuum back-filled with phosphate buffer and transferred to jars containing a volume (˜100 mL) of the same buffer. The sealed jars were then incubated at 37° C., and small aliquots (˜500 μL) of receiving buffer were withdrawn at selected time points to quantify the released drug by high pressure liquid chromatography (HPLC).

On to `O=C1CC[C@@]2(O)[C@H]3Cc4ccc(O)c5c4[C@@]2(CCN3CC2CC2)[C@H]1O5` [naltrexone HCl], for which the “in vitro elution rate of naltrexone from device” value is “over 50 mg/day”.

The values above are taken from patent US20220280503A1, “COMPOSITIONS OF OPIOID ANTAGONISTS, IMPLANT DEVICES, AND TREATMENT METHODS FOR OPIOID USE DISORDER” (Delpor, Inc., priority 2019, published 2022).
